Data published in PMC11472313, “Development of Fragment-Based Inhibitors of the Bacterial Deacetylase LpxC with Low Nanomolar Activity” (Journal of Medicinal Chemistry, 2024).
≈ marks a conversion by molar mass, not a printed value.

Key:
E. coli BL21(DE3) [1] = test: MIC, broth microdilution; type: cell-based; details: Escherichia coli, 20 h, 37 °C, LB
Method: (§1) Besides measuring the inhibitory activities toward E. coli LpxC C63A, the antibacterial activities of the synthesized hydroxamic acids were evaluated by determining their minimal inhibitory concentrations (MIC) in broth dilution tests as well as by performing disc diffusion assays (Table 1).
(§2) The MIC values of the compounds were determined by means of the microdilution method using 96-well plates.
(§3) The overnight suspension was diluted 1:1000 in fresh LB. 10 μL of a 2-fold dilution series of the compounds in DMSO and 90 μL of LB were dispensed to each well of a 96-well plate. Then, 100 μL of the inoculated medium was added, resulting in 5 × 10^5 cfu mL^–1, 5% DMSO, and a final concentration range of the test compounds between 64 and 0.016 μg mL^–1. The plates were incubated for 20 h at 37 °C. The MIC was defined as the lowest concentration of the compounds that prevented visible growth after incubation. Each assay was performed at least three times on separate days.

E. coli D22 [2] = test: MIC, broth microdilution; type: cell-based; details: Escherichia coli, 20 h, 37 °C, LB
Method: as §1, §2, §3

E. coli LpxC C63A = target: T1, E. coli LpxC C63A (Escherichia coli, UniProt P0A725, C63A); test: fluorescence-based E. coli LpxC C63A enzyme inhibition assay; type: biochemical; details: Ki E. coli LpxC C63A, from IC50 via Cheng–Prusoff
T1 construct: made in house; host or cells: E. coli BL21(DE3)
Method: In order to determine the inhibitory activities of the compounds of interest toward E. coli LpxC, a fluorescence-based enzyme assay was deployed, in which the formed deacetylated natural product UDP-3-O-[(R)-3-hydroxymyristoyl]glucosamine (2) is transformed into a fluorescent isoindole with o-phthaldialdehyde and 2-mercaptoethanol.[48],[49] […] The KM of E. coli LpxC C63A was determined experimentally using a mass spectrometry-based LpxC assay (Figure S8, Supporting Information, vide infra).
A fluorescence-based microplate assay for LpxC activity was performed as described by Clements et al.[48] The wells in a black, nonbinding, 96-well fluorescence microplate (Greiner Bio One, Frickenhausen) were filled with 93 μL of 26.9 μM UDP-3-O-[(R)-3-hydroxymyristoyl]-N-acetylglucosamine in assay buffer [40 mM sodium morpholinoethanesulfonic acid (pH 6.0), 80 μM dithiothreitol, 0.02% Brij 35]. In order to assay the inhibitors at final concentrations from 20 nM up to 20 μM, 2 μL of a respective dilution of the compounds in DMSO were added. The addition of 5 μL of a solution of purified LpxC (10 μg mL^–1) in assay buffer led to final concentrations of 25 μM UDP-3-O-[(R)-3-hydroxymyristoyl]-N-acetylglucosamine, 15 nM E. coli LpxC C63A, 2% DMSO, and from 20 nM up to 20 μM inhibitor. The microplate was incubated for 30 min at 37 °C in a plate shaker. Then, the biochemical reaction was stopped by adding 40 μL of 0.625 M sodium hydroxide. The reaction mixture was further incubated for 10 min and neutralized by adding 40 μL of 0.625 M acetic acid. The deacetylated product UDP-3-O-[(R)-3-hydroxymyristoyl]glucosamine was converted into a fluorescing isoindole by adding 120 μL of an o-phthaldialdehyde-2-mercaptoethanol solution, which was prepared by dissolving 10 mg of o-phthaldialdehyde in 1 mL of methanol, diluting the mixture with 24 mL of a sodium borate buffer (0.1 M), and finally adding 2.5 μL of 2-mercaptoethanol.[49] Fluorescence was measured with a TriStar^2 S LB 942 plate reader (Berthold, Bad Wildbad) at 340 nm excitation and 460 nm emission wavelengths. Each assay was performed at least three times on separate days. The IC50 values were calculated via Probit-log concentration graphs with the aid of the software Origin and were subsequently converted into Ki values using the Cheng–Prusoff equation.[75],[76]

E. coli BL21(DE3) [3] = test: disc diffusion assay; type: cell-based; details: 0.15 μmol per 6 mm disc
Method: as §1
(§4) The disc diffusion assays against E. coli BL21(DE3) and the defective strain E. coli D22 were performed as follows: liquid cultures of the bacteria were grown overnight in lysogeny broth (LB)[73] at 37 °C and 200 rpm. 150 μL of an overnight cell suspension was spread evenly onto LB agar plates. 0.15 μmol of each compound (dissolved in 10 or 15 μL DMSO) were applied onto circular filter paper (Ø = 6 mm, Cytiva). Pure DMSO, serving as a negative control, and CHIR-090, serving as a positive control, were also spotted. The agar plates were incubated overnight at 37 °C, and the diameter of the zone of growth inhibition was measured for each compound. Each assay was performed at least three times on separate days.

E. coli D22 [4] = test: disc diffusion assay; type: cell-based; details: 0.15 μmol per 6 mm disc
Method: as §1, §4

P. aeruginosa LpxC = target: T2, P. aeruginosa LpxC (Pseudomonas aeruginosa, UniProt P47205); test: LC–MS/MS-based P. aeruginosa LpxC enzyme inhibition assay; type: biochemical; details: from IC50 via Cheng–Prusoff
T2 construct: made in house; host or cells: E. coli BL21(DE3)
Description: As Pseudomonas aeruginosa is one of the so-called ESKAPE pathogens,[56] being the leading cause of nosocomial infections throughout the world, and carbapenem-resistant P. aeruginosa strains were assigned the highest priority (priority 1: critical) within the “WHO priority pathogens list for R&D of new antibiotics” (WHO 2017),[57] new antibacterial agents combating these bacteria are urgently required. Thus, our newly developed LpxC inhibitors should be tested for inhibitory activity toward P. aeruginosa LpxC, which shares 57% sequence identity with E. coli LpxC.[28] Therefore, a liquid chromatography with tandem mass spectrometry (LC–MS/MS)-based P. aeruginosa LpxC assay was established. […] After incubation and subsequent termination of the enzymatic reaction, the samples were subjected to LC–MS/MS analysis. Following the chromatographic separation of substrate 1 and deacetylated product 2, the eluted compounds were ionized and subjected to fragmentation. Three multiple reaction monitoring (MRM) transitions were detected per compound [precursor ions: m/z (substrate 1) 832; m/z (deacetylated product 2) 790; product ions: m/z (product 1) 385, collision energy = −60 V; m/z (product 2) 159, collision energy = −80 V; m/z (product 3) 79, collision energy = −140 V]. The MRM transitions 832 → 79 of substrate 1 and 790 → 79 of product 2 were used as quantifiers; the other mass transitions were used as qualifiers.
The protocol of the LC–MS/MS-based P. aeruginosa LpxC assay was based on the E. coli LpxC C63A enzyme assay. Compared to the fluorescence-based enzyme assay, the substrate was diluted 1:10 and the inhibitors were diluted 1:4.
The wells in a black, nonbinding, 96-well fluorescence microplate (Greiner Bio One, Frickenhausen) were filled with 93 μL of 2.69 μM UDP-3-O-[(R)-3-hydroxymyristoyl]-N-acetylglucosamine in assay buffer [50 mM KH2PO4/K2HPO4 (pH = 7.5), 80 μM dithiothreitol, 0.02% Brij 35]. In order to assay the inhibitors at final concentrations from 5 nM up to 5 μM, 2 μL of a respective dilution of the compounds in DMSO were added. The addition of 5 μL of a solution of purified P. aeruginosa LpxC (5 μg mL^–1) in assay buffer led to final concentrations of 2.5 μM UDP-3-O-[(R)-3-hydroxymyristoyl]-N-acetylglucosamine, 7.5 nM P. aeruginosa LpxC, 2% DMSO, and from 5 nM up to 5 μM inhibitor. The microplate was incubated for 30 min at 37 °C in a plate shaker. Then, the biochemical reaction was stopped by adding 40 μL of 0.625 M hydrochloric acid. The reaction mixtures were further incubated for 10 min, sealed, and stored at −80 °C until analysis.
LC–MS/MS-Analysis. The reaction mixtures were separated by ultrahigh performance liquid-chromatography (1290 II Infinity UHPLC, Agilent Technologies), and the eluted compounds were analyzed by mass spectrometry using electrospray ionization in negative ion mode with a triple quadrupole linear ion trap mass spectrometer (QTRAP 5500, AB Sciex LLC).
To analyze the eluted compounds by mass spectrometry, a MRM method was applied. The specific parameters of this method are given in Table S2 (Supporting Information). After detection and selection of the precursor ions (1: m/z 832; 2: m/z 790), both analytes were fragmented, leading to three identical product ions [m/z (product 1) 385, collision energy = −60 V; m/z (product 2) 159, collision energy = −80 V; m/z (product 3) 79, collision energy = −140 V]. The mass transitions 832 → 79 (substrate 1) and 790 → 79 (product 2) were used as quantifiers; the other mass transitions were used as qualifiers. The ratio between substrate 1 and product 2 was quantified by comparing the peak areas of the quantifiers. The percentual inhibition caused by each inhibitor concentration was determined with respect to the amount of the product formed in the noninhibited reaction after 30 min.
Each assay was performed at least two times on separate days. […]

LasB = target: T3, LasB (Pseudomonas aeruginosa, UniProt Q02RJ6); test: FRET-based LasB in vitro inhibition assay; type: biochemical, P. aeruginosa PA14
T3 construct: The elastase LasB of P. aeruginosa is a secreted metalloprotease; endogenous in cells; host or cells: P. aeruginosa PA14 culture supernatant
Method: Purification of LasB from P. aeruginosa PA14 supernatant and the subsequent performance of the FRET-based in vitro inhibition assay was performed as described previously.[66] The TACE (ADAM-17) inhibitor screening kit was purchased from Sigma-Aldrich (Saint Louis, MO). MMPs 1–3 along with the SensoLyte 520 Generic MMP Activity Kit Fluorimetric were purchased from AnaSpec (Fremont, CA, USA). The assays were performed according to the guidelines of the respective manufacturer. Fluorescence signals were measured using a CLARIOstar plate reader (BMG Labtech, Ortenberg, Germany).

LpxC–9 complex = test: NMR-ILOE (interligand NOESY) of fragment hits with LpxC and 9; details: fragment hits binding the LpxC–9 complex by STD and WaterLogsy; 6 μM LpxC
Method: In order to find fragments specifically addressing the UDP-binding pocket, which can be linked to the LpxC inhibitors, a fragment screen was performed against LpxC bound to 9. First, 650 fragments in cocktails of five were tested for binding to the LpxC–9 complex using STD-NMR and WaterLogsy experiments. Then, fragment hits identified as potential binders were tested one by one against the LpxC–9 complex by STD-NMR and WaterLogsy experiments performed under identical experimental conditions. A total of 97 fragment hits were identified as binders, leading to a hit rate of 15%.
Then, NMR-ILOE experiments were performed with selected fragment hits in the presence of LpxC and the unsubstituted hydroxamic acid 9. This allowed the identification of fragments that bind in the enzyme’s UDP-binding pocket near the methylene group in the α-position of the inhibitor’s hydroxamate moiety. Weak interligand NOESY peaks were observed between inhibitor 9 and nine fragments. By contrast, no interligand NOESY peaks were observed between compound 9 and the other ten fragments. […] Unexpectedly, we also observed interligand NOESY between the fragment protons and protons of the morpholino moiety.
Standard 1D and STD NMR spectra were acquired at 20 °C with a Bruker 600 MHz NMR spectrometer equipped with a 5 mm cryoprobe. Parameters for the STD experiments (saturation frequency and saturation time) were identical for all samples. […] STD saturation time was 2 s. WaterLOGSY mixing time was 1.5 s. Two NOESY experiments were recorded with mixing times of 0.6 and 0.3 s. STD and WaterLOGSY spectra were recorded with the same NMR tubes containing 3 μM LpxC, compound 9 at 500 μM, and fragments at 500 μM. For NOESY experiments, NMR tubes contained 6 μM LpxC.
Temperature was set to 293 K for all NMR experiments.

T3 sequence (Q02RJ6 198-498): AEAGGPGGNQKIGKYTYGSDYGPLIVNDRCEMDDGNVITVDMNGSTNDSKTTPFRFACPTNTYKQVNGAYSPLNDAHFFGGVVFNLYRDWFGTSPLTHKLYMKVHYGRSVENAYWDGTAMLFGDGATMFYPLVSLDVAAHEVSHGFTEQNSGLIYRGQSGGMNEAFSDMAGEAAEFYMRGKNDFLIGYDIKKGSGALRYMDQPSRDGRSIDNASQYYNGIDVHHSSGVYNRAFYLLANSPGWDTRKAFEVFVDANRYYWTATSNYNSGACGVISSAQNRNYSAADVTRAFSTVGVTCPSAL
T1 sequence (P0A725 whole entry C63A): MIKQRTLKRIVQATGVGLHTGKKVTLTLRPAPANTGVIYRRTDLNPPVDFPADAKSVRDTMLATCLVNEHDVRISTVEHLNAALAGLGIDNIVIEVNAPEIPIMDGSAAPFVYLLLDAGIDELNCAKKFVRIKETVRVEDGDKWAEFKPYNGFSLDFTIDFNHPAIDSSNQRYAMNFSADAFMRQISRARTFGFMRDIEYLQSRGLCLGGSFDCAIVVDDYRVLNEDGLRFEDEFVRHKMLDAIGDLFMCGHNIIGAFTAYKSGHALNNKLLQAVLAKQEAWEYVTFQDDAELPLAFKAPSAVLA
T2 sequence (P47205 whole entry): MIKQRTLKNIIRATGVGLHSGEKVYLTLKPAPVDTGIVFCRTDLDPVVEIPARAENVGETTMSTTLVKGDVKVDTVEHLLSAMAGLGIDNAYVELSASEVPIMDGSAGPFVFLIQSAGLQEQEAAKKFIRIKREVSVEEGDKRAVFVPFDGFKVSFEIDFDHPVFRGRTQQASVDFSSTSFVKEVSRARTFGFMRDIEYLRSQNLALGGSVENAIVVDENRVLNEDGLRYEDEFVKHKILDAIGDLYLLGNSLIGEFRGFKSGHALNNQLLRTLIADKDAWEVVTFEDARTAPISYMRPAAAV

SMILES	Inter-Ligand NOESY peaks between the fragment and 9 (LpxC–9 complex)	other results
O=C(NC[C@@H](OCc1ccc(C#Cc2ccc(CN3CCOCC3)cc2)cc1)C(=O)NO)c1c[nH]c2ccccc12 [(R)-13h]		MIC (E. coli BL21(DE3) [1]): > 16 µg/mL; MIC (E. coli D22 [2]): 4 µg/mL (≈ 7.24 µM); Ki (E. coli LpxC C63A): 1580 ± 216 nM; Inhibition zone E. coli BL21(DE3) (E. coli BL21(DE3) [3]): ≤6 mm; Inhibition zone E. coli D22 (E. coli D22 [4]): 13.3 ± 1.0 mm; Ki (P. aeruginosa LpxC): 631 ± 198 nM
Cc1noc(C)c1C(=O)NC[C@@H](OCc1ccc(C#Cc2ccc(CN3CCOCC3)cc2)cc1)C(=O)NO [(R)-13n]		MIC (E. coli BL21(DE3) [1]): > 16 µg/mL; MIC (E. coli D22 [2]): 8 µg/mL (≈ 15 µM); LasB Inhibition at 20 μM (LasB; 20 μM): no inhibitory activity; inhibition at 20 µM (LasB; read-out: LasB Inhibition at 20 μM): < 10%; Ki (E. coli LpxC C63A): > 2540 nM; Inhibition zone E. coli BL21(DE3) (E. coli BL21(DE3) [3]): ≤6 mm; Inhibition zone E. coli D22 (E. coli D22 [4]): 16.3 ± 1.6 mm
COc1ccc2[nH]ccc2c1 [F1]	yes	
Oc1ccc(-n2ccnc2)cc1 [F2]	yes	
c1ccc2[nH]ccc2c1 [F3]	yes	
NC(=O)Cc1c[nH]c2ccc(Cl)cc12 [F4]	yes	
c1ccc2c(c1)CCCN2 [F5]	yes	
Nc1cnc2ccccc2c1 [F6]	yes	
Nc1c2c(nc3ccccc13)CCCC2 [F7]	no	
c1ccc(C2NCCn3cccc32)cc1 (centres unmarked) [F8]	no	
OCc1ccc(-n2cccn2)cc1 [F9]	no	
c1ccc(Nc2ccccn2)nc1 [F10]	no	
NCc1ccc(-c2ccccc2)cc1 [F11]	yes	
c1ccc2[nH]ncc2c1 [F12]	no	
Cn1c(O)cc2ccccc21 [F13]	no	
c1ccc(-c2cc[nH]n2)cc1 [F14]	yes	
O=c1ccn([C@@H]2O[C@H](CO)[C@@H](O)[C@H]2O)c(=O)[nH]1 [F15]	no	
O=c1cc[nH]c(=O)[nH]1 [F16]	no	
Nc1cccc(-c2cnco2)c1 [F17]	no	
O=C1OCc2ccccc21 [F18]	no	
c1ccc(Cn2ccnc2)cc1 [F19]	yes	
